In patent US10669287B2, “Curcumin-boron complex and pharmaceutical containing same” (JAPAN SCIENCE AND TECHNOLOGY AGENCY, priority 2016, dated 2020):

How the values were obtained:
[1] = target: T1, Aβ1-42 (Homo sapiens, UniProt P05067); assay: In vitro oxygenation experiment using Aβ1-42 as a substrate (MALDI-TOF MS), Test Example 1; format: biochemical; conditions: test compound 1 μM, Aβ1-42 10 μM, LED irradiation at both 660 nm and 730 nm, 37° C.
T1 construct: phosphate buffer (pH 7.4)/cell culture solution (containing 0.1% horse serum) (1:3) containing Aβ1-42 (10 μM)
T1 sequence (P05067 672-713): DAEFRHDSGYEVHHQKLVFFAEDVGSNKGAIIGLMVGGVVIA
Experimental: An in vitro oxygenation experiment using Aβ1-42 as a substrate was conducted to confirm that each of the inventive compounds actually have Aβ oxygenation activity. A test compound (1 μM in each case) was added to phosphate buffer (pH 7.4)/cell culture solution (containing 0.1% horse serum) (1:3) containing Aβ1-42 (10 μM), and incubated under LED irradiation (wavelength: 660 nm, 730 nm) at 37° C., and then the reaction was tracked by using a mass spectrometer (MALDI-TOF MS). The native Aβ1-42 and the Na^+ adduct were mainly observed before light irradiation. After light irradiation, an ion peak indicating the presence of the oxygenated form was observed over time (FIG. 1, FIG. 2).

[2] = Conversion of furfuryl alcohol under different glycerol concentrations, Test Example 8; conditions: compound 2 μM, furfuryl alcohol 2 mM, glycerol-methanol 0, 10, 30, or 50% glycerol, 780 nm, room temperature
Experimental: To a glycerol-methanol mixed solvent (glycerol: 0, 10, 30, or 50%), furfuryl alcohol or N-benzoyl-Met (2 mM in each case) and the compound E (2 μM) were added, and the mixture was subjected to light irradiation (wavelength: 780 nm) at room temperature, and the concentration of furfuryl alcohol or N-benzoyl-Met was quantified by using a UV absorptiometer with LC/MS 10 minutes, 20 minutes, and 30 minutes after the initiation of light irradiation.

[3] = Stability of catalyst in neutral phosphate buffer without or under light irradiation (HPLC), Test Example 5; format: physicochemical; conditions: under light irradiation (660 nm)
Experimental: A neutral phosphate buffer containing a catalyst was incubated without light irradiation or under light irradiation (660 nm), and thereafter ethanol containing benzyl alcohol (as an internal standard) was added thereto, and analysis was performed by using HPLC.

[4] = target: T2, somatostatin (Sst) (Homo sapiens, UniProt P61278); assay: Aβ selectivity of oxygenation, Test Example 9; format: biochemical; conditions: peptide 20 μM, catalyst 5 μM, 780 nm (7 mW), 37° C., 30 minutes
T2 construct: angiotensin-IV (AT4), Met-enkephalin (ME), or somatostatin (Sst) (20 μM in each case)
Experimental: (§1) Aβ1-42 isopeptide (concentration: 250 μM in 0.1% aqueous solution of trifluoroacetic acid), angiotensin IV (200 μM aqueous solution), Met-enkephalin (200 μM aqueous solution), and somatostatin (200 μM aqueous solution) were added to a phosphate buffer or phosphate buffer saline (pH 7.4) (with 0.1 M aqueous solution of sodium hydroxide, as necessary) so that a final peptide concentration of 20 μM or 40 μM (pH 7.4) was reached. Before being subjected to oxygenation reaction, the Aβ1-42 solution was incubated at 37° C. for 1 to 3 hours. The phosphate buffer containing 40 μM of Aβ was diluted with a Dulbecco's modified Eagle's medium (DMEM, Life Technologies) containing 0.1% horse serum and buffered with 25 mM of 4-(2-hydroxyethyl)-1-piperazineethanesulfonic acid (HEPES).
(§2) Solutions of the compounds with a final concentration of 2 μM were used for evaluation of oxygenation of Aβ1-42. Solutions of the compounds with a final concentration of 5 μM were used for evaluation of peptide selectivity. […] A control group without light irradiation was additionally prepared. Reaction was analyzed through monitor analysis with a MALDI-TOF MS. Degree of oxygenation was determined as a ratio: degree of oxygenation (%)=(total of MS intensities for n[O] adducts)/(MS intensity for native+total of MS intensities for n[O] adducts)×100. Aliquots of each reaction solution were desalted with a ZipTip U-C18 (Merck Millipore), as necessary, before mass spectrometry.

[5] = target: T3, angiotensin-IV (AT4) (Homo sapiens, UniProt P01019); assay: Aβ selectivity of oxygenation, Test Example 9; format: biochemical; conditions: peptide 20 μM, catalyst 5 μM, 780 nm (7 mW), 37° C., 30 minutes
T3 construct: angiotensin-IV (AT4), Met-enkephalin (ME), or somatostatin (Sst) (20 μM in each case)
Experimental: as §1, §2

[6] = target: T4, Aβ peptide (Homo sapiens, UniProt P05067); assay: Aβ selectivity of oxygenation, Test Example 9; format: biochemical; conditions: peptide 20 μM, catalyst 5 μM (25 mol %), 780 nm (7 mW), 37° C., 30 minutes
T4 construct: Aβ1-42 isopeptide (concentration: 250 μM in 0.1% aqueous solution of trifluoroacetic acid)
T4 sequence (P05067 672-713): as above
Experimental: as §1, §2

[7] = target: T5, Met-enkephalin (ME) (Homo sapiens, UniProt P01210); assay: Aβ selectivity of oxygenation, Test Example 9; format: biochemical; conditions: peptide 20 μM, catalyst 5 μM, 780 nm (7 mW), 37° C., 30 minutes
T5 construct: angiotensin-IV (AT4), Met-enkephalin (ME), or somatostatin (Sst) (20 μM in each case)
Experimental: as §1, §2

[8] = system: Arctic Aβ1-42; assay: Oxygenation reaction in mouse brain extract, Test Example 6; format: biochemical; conditions: mouse brain lysate, light 780 nm
Experimental: The brain excised from an eight-month-old App knock-in (App^NL-C-F/NL-C-F) mouse (Alzheimer's model mouse) was separated into the cerebral cortex, the hippocampus, and the residual brain tissues. The cerebral cortex and the hippocampus were homogenized together in a phosphate buffer saline, and the suspension was stored at −80° C. […] At an arbitrary point of time, an arbitrary aliquot of the reaction mixture was diluted with formic acid to a final concentration of 70%, concentrated, and redissolved in a 6 M aqueous solution of urea.

[9] = system: PC 12 cells; format: cell-based
Experimental: Rat pheochromocytoma PC 12 cells were suspended with DMEM containing 5% horse serum and 10% fetal bovine serum, seeded in a poly-D-lysine-coated 96-well plate at a concentration of 10,000 cells per well, and incubated in a 5% carbon dioxide atmosphere at 37° C. for 3 days. After the solvent was removed, the cells were washed with 150 μL of serum-free DMEM, and DMEM (75 μL) containing 0.1% horse serum was added thereto. Thereafter, the 96-well plate was incubated in a 5% carbon dioxide atmosphere at 37° C. for 1 day for use in oxygenation reaction. In oxygenation reaction, the compound E (100 μM dimethyl sulfoxide solution) was added to a phosphate buffer saline containing Aβ (aggregated in advance for 3 hours, 40 μM) and 25 μL of the above cell solution (final concentration of Aβ: 10 μM, final concentration of compound E: 1 μM). The mixture was irradiated with an LED (wavelength: 780 nm) at a distance of approximately 5 cm at 37° C. for 5 minutes. The cells were incubated in a 5% carbon dioxide atmosphere at 37° C. for 48 hours. The cell viability was measured by using the Cell Count Reagent SF (NACALAI TESQUE, INC., Kyoto, Japan) with WST-8 (2-(2-methoxy-4-nitrophenyl)-3-(4-nitrophenyl)-5-(2,4-disulfophenyl)-2H-tetrazolium).
b: LC50 (dark) indicates the toxicity of a compound itself, and LC50 (light) indicates the phototoxicity of a compound. The PC 12 cells were placed in dark or subjected to photocatalytic treatment under light irradiation (wavelength: 660 nm), and incubated at 37° C. for 5 minutes, and then in a 5% carbon dioxide atmosphere at 37° C. for 48 hours, for which the cell viability was analyzed (n=5, mean±SEM).
b: The PC 12 cells were treated together with a photocatalyst (1 μM) at 37° C. for 5 minutes in dark or under light irradiation (wavelength: 780 nm), and thereafter the cell viability was analyzed (n=3, mean±SEM).

O=C(O)CCCCCN1CCCc2cc(/C=C/C3=[O+][B-](F)(C(F)(F)C(F)(F)F)OC(/C=C/c4cc5c6c(c4)CCCN6CCC5)=C3Br)ccc21 (centres unmarked) [Compound E]
oxygenation of Aβ1-42 under light irradiation [1]: oxygenation of the Aβ proceeded
oxygenation reaction rate of furfuryl alcohol [2]: higher as the viscosity of the solvent was higher
stability of catalyst (ranking) [3]: stability was higher
oxygenation rate of somatostatin [4]: lower than 5%
oxygenation rate of angiotensin-IV [5]: lower than 5%
oxygenation of pre-aggregated Aβ peptide [6]: 44%
oxygenation rate of Met-enkephalin [7]: lower than 5%
decrease of peak intensity (conversion) of Arctic Aβ1-42 ([8]; 30 minutes): 43%
decrease of peak intensity (conversion) of Arctic Aβ1-42 ([8]; 60 minutes): 60%
decrease of peak intensity (conversion) of Arctic Aβ1-42 ([8]; 150 minutes): 83%
CC50 [9]: > 10 µM
